Test results taken from US11077115B2, “Rorgamma modulators and uses thereof” (Genfit, priority 2017, dated 2021).

Key:
[1] = target: T1, human RORγt (Homo sapiens, UniProt P51449); test: IL-17 secretion from EL4 murine lymphoma overexpressing human RORγt; assay type: cell-based; set-up: V5-His (named only through the vector pcDNA3.1D/V5-His-TOPO); expressed in transfected cells; conditions: IL-17 secretion inhibition in human RORγt-transfected EL4 Tcells, PMA/ionomycin stimulation
T1 sequence (P51449 1-497 isoform P51449-2): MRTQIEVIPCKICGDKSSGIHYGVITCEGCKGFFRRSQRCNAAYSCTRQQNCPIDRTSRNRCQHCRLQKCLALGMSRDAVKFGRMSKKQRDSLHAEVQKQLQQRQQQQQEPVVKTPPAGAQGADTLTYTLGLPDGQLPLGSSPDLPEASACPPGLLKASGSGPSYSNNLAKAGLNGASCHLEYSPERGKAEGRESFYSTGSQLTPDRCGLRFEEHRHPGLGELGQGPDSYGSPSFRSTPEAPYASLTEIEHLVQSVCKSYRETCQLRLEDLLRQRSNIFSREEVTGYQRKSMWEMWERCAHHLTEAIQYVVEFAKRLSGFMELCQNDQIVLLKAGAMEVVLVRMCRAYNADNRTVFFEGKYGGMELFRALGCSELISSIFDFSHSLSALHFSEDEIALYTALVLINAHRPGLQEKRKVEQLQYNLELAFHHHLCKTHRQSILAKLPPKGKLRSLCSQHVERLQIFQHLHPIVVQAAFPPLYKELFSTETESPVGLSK
Procedure: Murine EL-4 lymphoma cell line overexpressing human RORγt was used in this functional assay to assess compound ability to inhibit IL-17 cytokine secretion.
EL-4 cells are maintained in a standard culture medium RPMI supplemented with 10% fetal calf serum, 1% sodium pyruvate, 1% essential amino acids and 1% antibiotics at 37° C. in a humidified atmosphere of 5% CO2 and 95% air. Culture medium was changed every 2 days. EL4 cells were transfected with a plasmid encoding hRORγt (sequence identical to published sequence NM 001001523). […] Briefly, 1 μg of DNA/1 million cells was served to transfect EL-4 cells. Cell/DNA suspension was transferred into certified cuvette and the electroporation of RORγt plasmid was carried out using appropriate Nucleofector® program.
Cells were seeded in 96 well plates at a density of 150000 cells/well then treated with compounds of this invention at indicated concentrations and incubated for 24 hours at 37° C. in a humidified atmosphere of 5% CO2 and 95% air. EL-4 cells were pretreated with test compounds (RORγ modulators) and stimulated with PMA (10 ng/mL) and ionomycin (1 μM final concentration) in the presence of test compound concentrations for additional 24 h at 37° C. in a humidified atmosphere of 5% CO2 and 95% air. Subsequently, supernatants were collected (after centrifugation at 300 g for 10 minutes) to determine the concentrations of IL-17 by HTRF (CisBio, France) or ELISA (R&D Systems Europe) according to the manufacturer's protocols.

[2] = target: T1, human RORγt; test: RORE Luciferase/RORγt transactivation assay (IL-17 promoter luciferase reporter in COS-7 cells); assay type: cell-based; set-up: V5-His (named only through the vector pcDNA3.1D/V5-His-TOPO); expressed in transfected cells; host or cells: COS-7 (monkey kidney); conditions: RORγt activity inhibition, luciferase activity in transfected COS-7 cells, 20 h
Summary of the method: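 COS-7 cells co-transfected with human RORγt and luciferase reporter driven by 4.3 kb IL-17 promoter with CNS enhancer, seeded in serum-free, phenol red-free DMEM. Compounds added at 0.3% DMSO final; luciferase read by Steady-Glo luminescence. IC50 (μM) and Emax (%) reported.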

[3] = target: T2, RORγt ligand-binding domain (RORγt-LBD) (Homo sapiens, UniProt P51449); test: Time-resolved FRET (TR-FRET) RORγt coactivator assay (RIP140 peptide displacement); assay type: biochemical; conditions: ligand-dependent coactivator-RORγt binding
T2 construct: 20 nM recombinantly expressed RORγ-LBD fused to GST
T2 sequence (P51449 269-508 limits assumed): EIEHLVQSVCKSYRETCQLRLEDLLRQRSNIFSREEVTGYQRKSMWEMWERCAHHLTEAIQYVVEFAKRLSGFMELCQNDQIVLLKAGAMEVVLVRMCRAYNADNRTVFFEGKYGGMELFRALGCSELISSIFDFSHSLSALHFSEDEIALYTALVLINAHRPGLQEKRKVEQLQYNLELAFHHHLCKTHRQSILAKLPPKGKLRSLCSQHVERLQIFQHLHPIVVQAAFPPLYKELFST
Summary of the method: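 GST-tagged RORγt-LBD (20 nM) with 30 nM biotinylated RIP140 peptide, 1 nM streptavidin-terbium and 20 nM d2-anti-GST in CHAPS buffer with DTT, EDTA, BSA; 1% DMSO. Compounds 0.3 nM–30 μM, 2 h dark, room temperature. Coactivator displacement lowers TR-FRET signal; IC50 (μM) and Emax (%) derived.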

SMILES	IC50 [1] [µM]	IC50 [2] [µM]	IC50 [3] [µM]
Cc1ccc(C(NC(=O)Cc2ccc(N3CCS(=O)(=O)CC3)cc2)c2ccc(C)o2)c(N2CCCCC2)c1 (stereo not drawn) [Cpd. 6, 2-[4-(1,1-dioxo-1-thiomorpholin-4-yl)phenyl]-N-{[4-methyl-2-(piperidin-1-yl)phenyl](5-methylfuran-2-yl)methyl}acetamide]	< 1	< 0.1	< 1
Cc1ccc(C(NC(=O)Cc2cc(N3CCS(=O)(=O)CC3)ccc2C)c2ccc(C)o2)c(N2CC3CC3C2)c1 (stereo not drawn) [Cpd. 28, N-[(2-{3-azabicyclo[3.1.0]hexan-3-yl}-4-methylphenyl)(5-methylfuran-2-yl)methyl]-2-[5-(1,1-dioxo-1-thiomorpholin-4-yl)-2-methylphenyl]acetamide]	0.1 to 1	0.1 to 1	< 1
O=C(Cc1ccc(N2CCS(=O)(=O)CC2)cc1)NC(c1ccccc1)c1ccccc1N1CCCCC1 (stereo not drawn) [Cpd. 1, 2-[4-(1,1-dioxo-1-thiomorpholin-4-yl)phenyl]-N-{phenyl[2-(piperidin-1-yl)phenyl]methyl}acetamide]	0.1 to 1	0.1 to 1	< 1
COc1ccc(C(NC(=O)Cc2ccc(N3CCS(=O)(=O)CC3)c(C)c2)c2ccc(C)o2)c(N(C)C)c1 (stereo not drawn) [Cpd. 15, N-{[2-(dimethylamino)-4-methoxyphenyl](5-methylfuran-2-yl)methyl}-2-[4-(1,1-dioxo-1-thiomorpholin-4-yl)-3-methylphenyl]acetamide]	< 1	0.1 to 1	< 1
Cc1ccc(C(NC(=O)Cc2ccc(N3CCS(=O)(=O)CC3)c(C)c2)c2ccc(C)o2)c(N2CCCCC2)c1 (stereo not drawn) [Cpd. 12, 2-[4-(1,1-dioxo-1-thiomorpholin-4-yl)-3-methylphenyl]-N-{[4-methyl-2-(piperidin-1-yl)phenyl](5-methylfuran-2-yl)methyl}acetamide]	< 1	< 0.1	< 1
Cc1ccc(C(NC(=O)Cc2ccc(N3CCS(=O)(=O)CC3)cc2C)c2ccc(C)o2)c(N2CCCCC2)c1 (stereo not drawn) [Cpd. 18, 2-[4-(1,1-dioxo-1-thiomorpholin-4-yl)-2-methylphenyl]-N-{[4-methyl-2-(piperidin-1-yl)phenyl](5-methylfuran-2-yl)methyl}acetamide]	< 1	< 0.1	< 1
COc1ccc(C(NC(=O)Cc2ccc(N3CCS(=O)(=O)CC3)c(C)c2)c2ccc(C)o2)c(N2CCC(C)CC2)c1 (stereo not drawn) [Cpd. 13, 2-[4-(1,1-dioxo-1-thiomorpholin-4-yl)-3-methylphenyl]-N-{[4-methoxy-2-(4-methylpiperidin-1-yl)phenyl](5-methylfuran-2-yl)methyl}acetamide]	0.1 to 1	0.1 to 1	0.1 to 1
COc1ccc(C(NC(=O)C2(c3ccc(N4CCS(=O)(=O)CC4)cc3)CC2)c2ccc(C)o2)c(N2CCCCCC2)c1 (stereo not drawn) [Cpd. 46, N-{[2-(azepan-1-yl)-4-methoxyphenyl](5-methylfuran-2-yl)methyl}-1-[4-(1,1-dioxo-1-thiomorpholin-4-yl)phenyl]cyclopropane-1-carboxamide]	< 1	< 0.1	0.1 to 1
Cc1ccc(C(NC(=O)Cc2ccc(N3CCOCC3)nc2)c2ccc(C)o2)c(N2CCCCC2)c1 (stereo not drawn) [Cpd. 25, N-{[4-methyl-2-(piperidin-1-yl)phenyl](5-methylfuran-2-yl)methyl}-2-[6-(morpholin-4-yl)pyridin-3-yl]acetamide]	0.1 to 1	0.1 to 1	< 1
Cc1ccc(C(NC(=O)Cc2ccc(N3CCS(=O)(=O)CC3)c(C)c2)c2ccc(C)o2)c(C(F)(F)F)c1 (stereo not drawn) [Cpd. 10, 2-[4-(1,1-dioxo-1-thiomorpholin-4-yl)-3-methylphenyl]-N-{[4-methyl-2-(trifluoromethyl)phenyl](5-methylfuran-2-yl)methyl}acetamide]	0.1 to 1	0.1 to 1	0.1 to 1
Cc1ccc(C(NC(=O)Cc2ccc(N3CCS(=O)(=O)CC3)cc2)c2ccccc2)c(Br)c1 (stereo not drawn) [Cpd. 9, N-[(2-bromo-4-methylphenyl)(phenyl)methyl]-2-[4-(1,1-dioxo-1-thiomorpholin-4-yl)phenyl]acetamide]	0.1 to 1	0.1 to 1	< 1

The remaining lines, values ahead:

IC50 [1] [µM]	IC50 [2] [µM]	IC50 [3] [µM]	SMILES
< 1	< 0.1	< 1	Cc1ccc(C(NC(=O)C2(c3ccc(N4CCS(=O)(=O)CC4)cc3)CC2)c2ccc(C)o2)c(C)c1 (stereo not drawn) [Cpd. 31, N-[(2,4-dimethylphenyl)(5-methylfuran-2-yl)methyl]-1-[4-(1,1-dioxo-1-thiomorpholin-4-yl)phenyl]cyclopropane-1-carboxamide]
< 1	< 0.1	0.1 to 1	Cc1ccc(C(NC(=O)C2(c3ccc(N4CCS(=O)(=O)CC4)cc3)CC2)c2ccc(C)o2)c(N2CCCCC2)c1 (stereo not drawn) [Cpd. 32, 1-[4-(1,1-dioxo-1-thiomorpholin-4-yl)phenyl]-N-{[4-methyl-2-(piperidin-1-yl)phenyl](5-methylfuran-2-yl)methyl}cyclopropane-1-carboxamide]
0.1 to 1	1 to 10	< 1	Cc1ccc(C(NC(=O)C2(c3cnc(N4CCS(=O)(=O)CC4)nc3)CC2)c2ccc(C)o2)c(Cl)c1 (stereo not drawn) [Cpd. 52, N-[(2-chloro-4-methylphenyl)(5-methylfuran-2-yl)methyl]-1-[2-(1,1-dioxo-1-thiomorpholin-4-yl)pyrimidin-5-yl]cyclopropane-1-carboxamide]
< 1	< 0.1	< 1	Cc1ccc(C(NC(=O)Cc2cnc(N3CCS(=O)(=O)CC3)nc2)c2ccc(C)o2)c(N2CCCCC2)c1 (stereo not drawn) [Cpd. 20, 2-[2-(1,1-dioxo-1-thiomorpholin-4-yl)pyrimidin-5-yl]-N-{[4-methyl-2-(piperidin-1-yl)phenyl](5-methylfuran-2-yl)methyl}acetamide]
0.1 to 1	< 0.1	< 1	Cc1ccc(C(NC(=O)Cc2ccc(N3CCS(=O)(=O)CC3)cc2C)c2ccc(C)o2)c(Br)c1 (stereo not drawn) [Cpd. 21, N-[(2-bromo-4-methylphenyl)(5-methylfuran-2-yl)methyl]-2-[4-(1,1-dioxo-1-thiomorpholin-4-yl)-2-methylphenyl]acetamide]
< 1	< 0.1	< 1	Cc1ccc(C(NC(=O)C2(c3ccc(N4CCS(=O)(=O)CC4)cc3)CC2)c2ccc(Cl)o2)c(C)c1 (stereo not drawn) [Cpd. 66, N-[(5-chlorofuran-2-yl)(2,4-dimethylphenyl)methyl]-1-[4-(1,1-dioxo-1-thiomorpholin-4-yl)phenyl]cyclopropane-1-carboxamide]
0.1 to 1	< 0.1	< 1	Cc1ccc(C(NC(=O)C2(c3cnc(N4CCS(=O)(=O)CC4)nc3)CC2)c2ccc(Cl)cc2C)o1 (stereo not drawn) [Cpd. 53, N-[(4-chloro-2-methylphenyl)(5-methylfuran-2-yl)methyl]-1-[2-(1,1-dioxo-1-thiomorpholin-4-yl)pyrimidin-5-yl]cyclopropane-1-carboxamide]
